Key:
Assay in all cases: SelectScreen ZLYTE
Format in all cases: biochemical
Conditions in all cases: ATP Km, read-out: Percentage of inhibition
RPS6KA4 (MSK2) = target: T1, RPS6KA4 (MSK2) (Homo sapiens, UniProt O75676)
T1 construct: purchased Life Technologies
Method in brief: (§1)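 Selectivity was assessed by testing 1 μM inhibitor on many kinases at once, recording how strongly each enzyme was inhibited in percent.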

PIM1 = target: T2, PIM1 (Homo sapiens, UniProt P11309)
T2 construct: purchased Life Technologies (SelectScreen service)
Method in brief: as §1

AMPK (A2/B2/G3) = AMPK (A2/B2/G3) (Homo sapiens, UniProt P54646)
Method in brief: as §1

PAK6 = target: T3, PAK6 (Homo sapiens, UniProt Q9NQU5)
T3 construct: purchased Life Technologies
Method in brief: as §1

MAP3K19 (YSK4) = target: T4, MAP3K19 (YSK4) (Homo sapiens, UniProt Q56UN5)
T4 construct: purchased Life Technologies (SelectScreen Whole Panel)
Method in brief: as §1

ABL2 (Arg) = target: T5, ABL2 (Arg) (Homo sapiens, UniProt P42684)
T5 construct: purchased Life Technologies (SelectScreen service)
Method in brief: as §1

CDKL5 = target: T6, CDKL5 (Homo sapiens, UniProt O76039)
T6 construct: purchased Life Technologies
Method in brief: as §1

RET V804L = target: T7, RET V804L (Homo sapiens, UniProt P07949, V804L)
T7 construct: purchased Life Technologies
Method in brief: as §1

[1] = target: CSNK1E (CK1 epsilon) R178C (Homo sapiens, UniProt P49674, R178C)
Method in brief: as §1

MAPKAPK5 (PRAK) = MAPKAPK5 (PRAK) (Homo sapiens, UniProt Q8IW41)
Method in brief: as §1

KIT V560G = target: T8, KIT V560G (Homo sapiens, UniProt P10721, V560G)
T8 construct: purchased Life Technologies
Method in brief: as §1

PRKCN (PKD3) = target: T9, PRKCN (PKD3) (Homo sapiens, UniProt O94806)
T9 construct: purchased Life Technologies
Method in brief: as §1

SGK2 = SGK2 (Homo sapiens, UniProt Q9HBY8)
Method in brief: as §1

STK22D (TSSK1) = target: T10, STK22D (TSSK1) (Homo sapiens, UniProt Q9BXA7)
T10 construct: purchased Life Technologies (SelectScreen Whole Panel service)
Method in brief: as §1

SYK = target: T11, SYK (Homo sapiens, UniProt P43405)
T11 construct: purchased Life Technologies (SelectScreen service)
Method in brief: as §1

PTK2B (FAK2) = target: T12, PTK2B (FAK2) (Homo sapiens, UniProt Q14289)
T12 construct: purchased Life Technologies (SelectScreen Whole Panel service)
Method in brief: as §1

DYRK4 = target: T13, DYRK4 (Homo sapiens, UniProt Q9NR20)
T13 construct: purchased Life Technologies
Method in brief: as §1

AKT1 (PKB alpha) = AKT1 (PKB alpha) (Homo sapiens, UniProt P31749)
Method in brief: as §1

FGFR3 V555M = target: T14, FGFR3 V555M (Homo sapiens, UniProt P22607, V555M)
T14 construct: purchased Life Technologies (SelectScreen Whole Panel service)
Method in brief: as §1

FLT4 (VEGFR3) = target: T15, FLT4 (VEGFR3) (Homo sapiens, UniProt P35916)
T15 construct: purchased Life Technologies (SelectScreen service)
Method in brief: as §1

MAPKAPK2 = target: T16, MAPKAPK2 (Homo sapiens, UniProt P49137)
T16 construct: purchased Life Technologies
Method in brief: as §1

GRK4 = target: T17, GRK4 (Homo sapiens, UniProt P32298)
T17 construct: purchased Life Technologies
Method in brief: as §1

ITK = target: T18, ITK (Homo sapiens, UniProt Q08881)
T18 construct: purchased Life Technologies (SelectScreen Whole Panel)
Method in brief: as §1

MUSK = target: T19, MUSK (Homo sapiens, UniProt O15146)
T19 construct: purchased Life Technologies (SelectScreen Whole Panel service)
Method in brief: as §1

RPS6KB1 (p70S6K) = target: T20, RPS6KB1 (p70S6K) (Homo sapiens, UniProt P23443)
T20 construct: purchased Life Technologies (SelectScreen Whole Panel service)
Method in brief: as §1

LCK = LCK (Homo sapiens, UniProt P06239)
Method in brief: as §1

NEK4 = target: T21, NEK4 (Homo sapiens, UniProt P51957)
T21 construct: purchased Life Technologies
Method in brief: as §1

CHEK1 (CHK1) = CHEK1 (CHK1) (Homo sapiens, UniProt O14757)
Method in brief: as §1

CDC42 BPG (MRCKG) = target: T22, CDC42 BPG (MRCKG) (Homo sapiens, UniProt Q6DT37)
T22 construct: purchased Life Technologies (SelectScreen Whole Panel service)
Method in brief: as §1

MET (cMet) Y1235D = target: T23, MET (cMet) Y1235D (Homo sapiens, UniProt P08581, Y1235D)
T23 construct: purchased Life Technologies
Method in brief: as §1

ABL1 Y253F = target: T24, ABL1 Y253F (Homo sapiens, UniProt P00519, Y253F)
T24 construct: purchased Life Technologies (SelectScreen Whole Panel)
Method in brief: as §1

NTRK1 (TRKA) = NTRK1 (TRKA) (Homo sapiens, UniProt P04629)
Method in brief: as §1

AURKB (Aurora B) = target: T25, AURKB (Aurora B) (Homo sapiens, UniProt Q96GD4)
T25 construct: purchased Life Technologies
Method in brief: as §1

INSR = INSR (Homo sapiens, UniProt P06213)
Method in brief: as §1

ROS1 = target: T26, ROS1 (Homo sapiens, UniProt P08922)
T26 construct: purchased Life Technologies
Method in brief: as §1

EPHA2 = target: T27, EPHA2 (Homo sapiens, UniProt P29317)
T27 construct: purchased Life Technologies
Method in brief: as §1

SRMS (Srm) = target: T28, SRMS (Srm) (Homo sapiens, UniProt Q9H3Y6)
T28 construct: purchased Life Technologies (SelectScreen Whole Panel service)
Method in brief: as §1

RPS6KA2 (RSK3) = target: T29, RPS6KA2 (RSK3) (Homo sapiens, UniProt Q15349)
T29 construct: purchased Life Technologies (SelectScreen service)
Method in brief: as §1

DCAMKL2 (DCK2) = DCAMKL2 (DCK2) (Homo sapiens, UniProt Q8N568)
Method in brief: as §1

T7 sequence (P07949 29-1114 V804L): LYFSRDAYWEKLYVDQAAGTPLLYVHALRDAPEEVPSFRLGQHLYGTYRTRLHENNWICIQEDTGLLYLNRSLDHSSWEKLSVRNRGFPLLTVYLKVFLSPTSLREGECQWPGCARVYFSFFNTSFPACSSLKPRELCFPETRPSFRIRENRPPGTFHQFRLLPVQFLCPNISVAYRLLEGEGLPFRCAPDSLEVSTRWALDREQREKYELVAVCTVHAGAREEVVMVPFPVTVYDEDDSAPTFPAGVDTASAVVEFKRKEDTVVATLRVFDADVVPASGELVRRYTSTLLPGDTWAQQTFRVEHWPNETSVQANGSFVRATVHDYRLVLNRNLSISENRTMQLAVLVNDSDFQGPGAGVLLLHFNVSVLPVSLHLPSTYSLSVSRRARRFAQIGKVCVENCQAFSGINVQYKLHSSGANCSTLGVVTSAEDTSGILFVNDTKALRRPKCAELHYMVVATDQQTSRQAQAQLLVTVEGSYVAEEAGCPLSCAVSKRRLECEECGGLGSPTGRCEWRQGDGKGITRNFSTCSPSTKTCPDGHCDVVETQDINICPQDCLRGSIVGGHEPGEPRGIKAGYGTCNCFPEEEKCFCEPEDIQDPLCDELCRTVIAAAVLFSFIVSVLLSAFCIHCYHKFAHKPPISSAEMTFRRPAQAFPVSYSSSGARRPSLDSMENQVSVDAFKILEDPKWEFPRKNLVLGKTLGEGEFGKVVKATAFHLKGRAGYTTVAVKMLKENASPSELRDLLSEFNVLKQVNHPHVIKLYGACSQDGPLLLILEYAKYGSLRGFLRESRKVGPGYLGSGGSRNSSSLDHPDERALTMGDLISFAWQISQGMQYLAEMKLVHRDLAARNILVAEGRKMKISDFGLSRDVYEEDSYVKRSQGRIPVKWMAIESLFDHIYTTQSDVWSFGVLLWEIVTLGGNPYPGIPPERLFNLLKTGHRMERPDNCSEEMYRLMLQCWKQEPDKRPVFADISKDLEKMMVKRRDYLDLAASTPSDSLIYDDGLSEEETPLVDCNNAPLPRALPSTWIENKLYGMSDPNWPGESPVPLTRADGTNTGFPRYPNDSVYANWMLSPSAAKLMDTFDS
T27 sequence (P29317 24-976): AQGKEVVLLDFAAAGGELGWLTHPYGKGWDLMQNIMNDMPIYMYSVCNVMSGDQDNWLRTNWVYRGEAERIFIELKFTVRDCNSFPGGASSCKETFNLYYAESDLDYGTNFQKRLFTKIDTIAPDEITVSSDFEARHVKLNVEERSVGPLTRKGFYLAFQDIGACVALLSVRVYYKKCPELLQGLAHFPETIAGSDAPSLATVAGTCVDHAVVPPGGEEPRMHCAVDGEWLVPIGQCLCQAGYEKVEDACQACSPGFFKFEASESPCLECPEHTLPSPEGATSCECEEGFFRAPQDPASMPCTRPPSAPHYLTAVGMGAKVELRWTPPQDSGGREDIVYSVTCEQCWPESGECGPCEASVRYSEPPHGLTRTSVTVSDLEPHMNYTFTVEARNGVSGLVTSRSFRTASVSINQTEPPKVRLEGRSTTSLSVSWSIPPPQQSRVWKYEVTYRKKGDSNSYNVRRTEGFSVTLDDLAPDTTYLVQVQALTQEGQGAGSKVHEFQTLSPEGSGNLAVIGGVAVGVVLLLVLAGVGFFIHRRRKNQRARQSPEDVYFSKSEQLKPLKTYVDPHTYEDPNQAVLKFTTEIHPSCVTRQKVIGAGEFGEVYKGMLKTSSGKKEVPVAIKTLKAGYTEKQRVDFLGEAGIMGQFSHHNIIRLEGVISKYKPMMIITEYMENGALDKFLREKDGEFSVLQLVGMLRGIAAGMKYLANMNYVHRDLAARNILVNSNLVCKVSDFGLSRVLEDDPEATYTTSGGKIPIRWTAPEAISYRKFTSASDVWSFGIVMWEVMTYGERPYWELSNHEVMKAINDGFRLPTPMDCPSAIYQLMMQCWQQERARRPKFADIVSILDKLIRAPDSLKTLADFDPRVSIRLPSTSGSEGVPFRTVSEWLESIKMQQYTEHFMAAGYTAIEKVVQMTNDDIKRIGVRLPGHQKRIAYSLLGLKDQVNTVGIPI
T10 sequence (Q9BXA7 whole entry): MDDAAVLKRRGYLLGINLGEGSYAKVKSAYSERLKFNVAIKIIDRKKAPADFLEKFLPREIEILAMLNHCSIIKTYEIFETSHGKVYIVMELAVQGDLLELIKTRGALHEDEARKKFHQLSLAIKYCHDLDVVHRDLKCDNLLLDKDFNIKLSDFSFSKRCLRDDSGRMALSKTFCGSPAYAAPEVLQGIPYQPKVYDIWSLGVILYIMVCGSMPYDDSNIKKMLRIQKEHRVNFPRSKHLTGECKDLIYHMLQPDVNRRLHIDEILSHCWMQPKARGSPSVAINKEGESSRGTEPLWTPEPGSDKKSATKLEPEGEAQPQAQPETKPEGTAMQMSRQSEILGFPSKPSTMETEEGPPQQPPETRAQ
T18 sequence (Q08881 whole entry): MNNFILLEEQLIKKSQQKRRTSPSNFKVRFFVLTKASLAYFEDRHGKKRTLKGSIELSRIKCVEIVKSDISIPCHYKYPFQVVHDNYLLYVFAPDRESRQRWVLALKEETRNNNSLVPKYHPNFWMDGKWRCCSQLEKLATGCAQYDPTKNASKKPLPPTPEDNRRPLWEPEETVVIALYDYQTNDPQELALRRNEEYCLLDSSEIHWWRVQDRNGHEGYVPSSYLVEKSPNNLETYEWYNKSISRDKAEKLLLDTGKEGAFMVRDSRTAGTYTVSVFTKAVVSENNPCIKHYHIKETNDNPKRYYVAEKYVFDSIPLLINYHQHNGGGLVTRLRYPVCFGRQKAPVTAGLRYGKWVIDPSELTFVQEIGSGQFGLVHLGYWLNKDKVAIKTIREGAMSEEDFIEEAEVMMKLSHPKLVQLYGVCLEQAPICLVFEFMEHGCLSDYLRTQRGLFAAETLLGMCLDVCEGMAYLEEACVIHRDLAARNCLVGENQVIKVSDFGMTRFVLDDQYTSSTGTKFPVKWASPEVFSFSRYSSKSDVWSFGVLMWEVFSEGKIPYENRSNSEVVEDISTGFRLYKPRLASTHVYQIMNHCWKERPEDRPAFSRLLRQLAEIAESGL
T21 sequence (P51957 whole entry): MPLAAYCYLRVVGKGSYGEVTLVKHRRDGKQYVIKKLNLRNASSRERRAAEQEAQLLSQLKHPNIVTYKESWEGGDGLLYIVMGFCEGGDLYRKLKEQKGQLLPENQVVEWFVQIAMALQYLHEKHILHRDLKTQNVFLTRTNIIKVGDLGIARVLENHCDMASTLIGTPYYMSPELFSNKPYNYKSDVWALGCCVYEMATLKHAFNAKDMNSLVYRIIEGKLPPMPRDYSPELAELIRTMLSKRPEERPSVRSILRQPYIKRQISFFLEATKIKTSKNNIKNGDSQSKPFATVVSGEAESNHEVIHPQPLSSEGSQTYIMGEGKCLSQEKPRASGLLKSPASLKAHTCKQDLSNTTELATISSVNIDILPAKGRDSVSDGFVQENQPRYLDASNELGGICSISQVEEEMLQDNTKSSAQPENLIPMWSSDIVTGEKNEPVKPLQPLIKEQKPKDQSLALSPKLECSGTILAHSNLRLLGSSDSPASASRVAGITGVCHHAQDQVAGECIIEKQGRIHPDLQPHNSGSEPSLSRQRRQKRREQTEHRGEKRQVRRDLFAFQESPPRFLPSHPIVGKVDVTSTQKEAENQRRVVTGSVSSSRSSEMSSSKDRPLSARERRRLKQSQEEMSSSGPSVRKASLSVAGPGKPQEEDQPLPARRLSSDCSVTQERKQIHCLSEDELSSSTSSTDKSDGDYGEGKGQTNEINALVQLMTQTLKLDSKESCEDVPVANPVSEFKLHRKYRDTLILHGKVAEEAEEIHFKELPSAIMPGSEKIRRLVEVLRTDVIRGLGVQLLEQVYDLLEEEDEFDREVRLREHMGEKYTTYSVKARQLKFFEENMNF
Chain of SGK2 (Q9HBY8 whole entry): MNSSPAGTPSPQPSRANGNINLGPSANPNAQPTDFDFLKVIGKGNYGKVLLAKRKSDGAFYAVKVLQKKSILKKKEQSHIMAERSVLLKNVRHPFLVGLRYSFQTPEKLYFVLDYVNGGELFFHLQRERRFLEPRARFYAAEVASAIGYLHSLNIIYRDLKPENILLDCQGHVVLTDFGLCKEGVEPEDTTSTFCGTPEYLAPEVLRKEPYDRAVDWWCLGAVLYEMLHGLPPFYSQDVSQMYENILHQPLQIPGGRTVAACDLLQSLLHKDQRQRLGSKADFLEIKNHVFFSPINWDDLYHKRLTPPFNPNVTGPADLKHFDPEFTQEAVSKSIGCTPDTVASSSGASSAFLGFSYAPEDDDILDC
T16 sequence (P49137 whole entry): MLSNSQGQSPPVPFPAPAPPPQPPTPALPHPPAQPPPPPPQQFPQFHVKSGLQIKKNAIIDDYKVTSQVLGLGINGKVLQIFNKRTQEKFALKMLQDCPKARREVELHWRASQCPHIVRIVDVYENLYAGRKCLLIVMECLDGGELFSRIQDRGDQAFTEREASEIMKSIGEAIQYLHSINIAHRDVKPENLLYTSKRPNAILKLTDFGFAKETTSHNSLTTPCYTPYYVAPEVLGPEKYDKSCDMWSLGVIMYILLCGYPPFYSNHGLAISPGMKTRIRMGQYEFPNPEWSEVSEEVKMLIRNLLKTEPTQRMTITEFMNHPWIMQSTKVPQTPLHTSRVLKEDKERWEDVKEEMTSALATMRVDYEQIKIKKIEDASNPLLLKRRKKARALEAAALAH
T2 sequence (P11309 whole entry): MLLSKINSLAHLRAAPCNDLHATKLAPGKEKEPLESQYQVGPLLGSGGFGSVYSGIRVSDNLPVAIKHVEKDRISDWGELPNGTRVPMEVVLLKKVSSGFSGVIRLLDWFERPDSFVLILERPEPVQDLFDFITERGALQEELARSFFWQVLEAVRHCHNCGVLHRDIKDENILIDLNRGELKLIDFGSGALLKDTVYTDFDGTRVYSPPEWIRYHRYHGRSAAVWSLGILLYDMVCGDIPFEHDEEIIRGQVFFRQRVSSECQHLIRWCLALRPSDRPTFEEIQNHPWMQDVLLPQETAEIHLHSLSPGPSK

COc1ccc2[nH]c3c(=O)[nH]c4ccc(O)cc4c3c2c1 [Compound 55, 2-Hydroxy-10-methoxy-5,7-dihydro-6H-indolo[2,3-c]quinolin-6-one]
inhibition at 1 µM (RPS6KA4 (MSK2)): 39% | inhibition at 1 µM (PIM1): 71% | inhibition at 1 µM (AMPK (A2/B2/G3)): 57% | inhibition at 1 µM (PAK6): 4% | inhibition at 1 µM (MAP3K19 (YSK4)): 49% | inhibition at 1 µM (ABL2 (Arg)): 24% | inhibition at 1 µM (CDKL5): 5% | inhibition at 1 µM (RET V804L): 98% | inhibition at 1 µM [1]: 70% | inhibition at 1 µM (MAPKAPK5 (PRAK)): 22% | inhibition at 1 µM (KIT V560G): 27% | inhibition at 1 µM (PRKCN (PKD3)): 40% | inhibition at 1 µM (SGK2): 19% | inhibition at 1 µM (STK22D (TSSK1)): 19% | inhibition at 1 µM (SYK): 82% | inhibition at 1 µM (PTK2B (FAK2)): 46% | inhibition at 1 µM (DYRK4): 42% | inhibition at 1 µM (AKT1 (PKB alpha)): 6% | inhibition at 1 µM (FGFR3 V555M): 46% | inhibition at 1 µM (FLT4 (VEGFR3)): 72% | inhibition at 1 µM (MAPKAPK2): 2% | inhibition at 1 µM (GRK4): 42% | inhibition at 1 µM (ITK): 49% | inhibition at 1 µM (MUSK): 18% | inhibition at 1 µM (RPS6KB1 (p70S6K)): 12% | inhibition at 1 µM (LCK): 67% | inhibition at 1 µM (NEK4): 28% | inhibition at 1 µM (CHEK1 (CHK1)): 19% | inhibition at 1 µM (CDC42 BPG (MRCKG)): 12% | inhibition at 1 µM (MET (cMet) Y1235D): 2% | inhibition at 1 µM (ABL1 Y253F): 55% | inhibition at 1 µM (NTRK1 (TRKA)): 69% | inhibition at 1 µM (AURKB (Aurora B)): 41% | inhibition at 1 µM (INSR): 21% | inhibition at 1 µM (ROS1): 29% | inhibition at 1 µM (EPHA2): 40% | inhibition at 1 µM (SRMS (Srm)): 16% | inhibition at 1 µM (RPS6KA2 (RSK3)): 88% | inhibition at 1 µM (DCAMKL2 (DCK2)): 6%

From paper PMC9186362, “Design and biological evaluation of substituted 5,7-dihydro-6H-indolo[2,3-c]quinolin-6-one as novel selective Haspin inhibitors” (Journal of Enzyme Inhibition and Medicinal Chemistry, 2022)
